ChEMBL document CHEMBL5375952, “Discovery of Novel 8-Hydroxyquinoline Derivatives with Potent In Vitro and In Vivo Antifungal Activity” (J Med Chem, 2023)
Converted amounts (≈) assume the structure as drawn.

Key:
[1] = test system: Candida albicans; assay: Antifungal activity against Candida albicans SC5314 assessed as fungal growth inhibition incubated for 48 hrs by broth microdilution method; assay type: functional
[2] = test system: Candida albicans; assay: Antifungal activity against Candida albicans 22 assessed as fungal growth inhibition incubated for 48 hrs by broth microdilution method; assay type: functional
[3] = test system: Nakaseomyces glabratus; assay: Antifungal activity against Candida glabrata 202 assessed as fungal growth inhibition incubated for 48 hrs by broth microdilution method; assay type: functional
[4] = test system: Nakaseomyces glabratus; assay: Antifungal activity against Candida glabrata 205 assessed as fungal growth inhibition incubated for 48 hrs by broth microdilution method; assay type: functional
[5] = test system: Pichia kudriavzevii; assay: Antifungal activity against Candida krusei 68 assessed as fungal growth inhibition incubated for 48 hrs by broth microdilution method; assay type: functional
[6] = test system: Pichia kudriavzevii; assay: Antifungal activity against Candida krusei 69 assessed as fungal growth inhibition incubated for 48 hrs by broth microdilution method; assay type: functional
[7] = test system: Pichia kudriavzevii; assay: Antifungal activity against Candida krusei 477 assessed as fungal growth inhibition incubated for 48 hrs by broth microdilution method; assay type: functional
[8] = test system: Candida parapsilosis; assay: Antifungal activity against Candida parapsilosis 105 assessed as fungal growth inhibition incubated for 48 hrs by broth microdilution method; assay type: functional; details: Lodderomyces parapsilosis
[9] = test system: Candida parapsilosis; assay: Antifungal activity against Candida parapsilosis 107 assessed as fungal growth inhibition incubated for 48 hrs by broth microdilution method; assay type: functional; details: Lodderomyces parapsilosis
[10] = test system: Candida parapsilosis; assay: Antifungal activity against Candida parapsilosis 125 assessed as fungal growth inhibition incubated for 48 hrs by broth microdilution method; assay type: functional; details: Lodderomyces parapsilosis
[11] = test system: Candida tropicalis; assay: Antifungal activity against Candida tropicalis 176 assessed as fungal growth inhibition incubated for 48 hrs by broth microdilution method; assay type: functional
[12] = test system: Candida tropicalis; assay: Antifungal activity against Candida tropicalis 178 assessed as fungal growth inhibition incubated for 48 hrs by broth microdilution method; assay type: functional
[13] = test system: Candida tropicalis; assay: Antifungal activity against Candida tropicalis 184 assessed as fungal growth inhibition incubated for 48 hrs by broth microdilution method; assay type: functional
[14] = test system: Cryptococcus neoformans; assay: Antifungal activity against Cryptococcus neoformans 443 assessed as fungal growth inhibition incubated for 48 hrs by broth microdilution method; assay type: functional
[15] = test system: Cryptococcus neoformans; assay: Antifungal activity against Cryptococcus neoformans 444 assessed as fungal growth inhibition incubated for 48 hrs by broth microdilution method; assay type: functional
[16] = test system: Cryptococcus neoformans; assay: Antifungal activity against Cryptococcus neoformans 445 assessed as fungal growth inhibition incubated for 48 hrs by broth microdilution method; assay type: functional
[17] = test system: Aspergillus fumigatus; assay: Antifungal activity against Aspergillus fumigatus 023-12 assessed as fungal growth inhibition incubated for 48 hrs by broth microdilution method; assay type: functional
[18] = test system: Aspergillus fumigatus; assay: Antifungal activity against Aspergillus fumigatus A assessed as fungal growth inhibition incubated for 48 hrs by broth microdilution method; assay type: functional
[19] = test system: Aspergillus fumigatus; assay: Antifungal activity against Aspergillus fumigatus 7544 assessed as fungal growth inhibition incubated for 48 hrs by broth microdilution method; assay type: functional
[20] = test system: Candida albicans; assay: Antifungal activity against Candida albicans 25 assessed as fungal growth inhibition incubated for 48 hrs by broth microdilution method; assay type: functional
[21] = test system: Candida albicans; assay: Antifungal activity against Candida albicans 337 assessed as fungal growth inhibition incubated for 48 hrs by broth microdilution method; assay type: functional
[22] = test system: Candida albicans; assay: Antifungal activity against Candida albicans 338 assessed as fungal growth inhibition incubated for 48 hrs by broth microdilution method; assay type: functional
[23] = test system: [Candida] auris; assay: Antifungal activity against Candida auris 276 assessed as fungal growth inhibition incubated for 48 hrs by broth microdilution method; assay type: functional; details: Candidozyma auris
[24] = test system: [Candida] auris; assay: Antifungal activity against Candida auris 277 assessed as fungal growth inhibition incubated for 48 hrs by broth microdilution method; assay type: functional; details: Candidozyma auris
[25] = test system: [Candida] auris; assay: Antifungal activity against Candida auris 278 assessed as fungal growth inhibition incubated for 48 hrs by broth microdilution method; assay type: functional; details: Candidozyma auris
[26] = test system: [Candida] auris; assay: Antifungal activity against Candida auris 887 assessed as fungal growth inhibition incubated for 48 hrs by broth microdilution method; assay type: functional; details: Candidozyma auris
[27] = test system: [Candida] auris; assay: Antifungal activity against Candida auris 888 assessed as fungal growth inhibition incubated for 48 hrs by broth microdilution method; assay type: functional; details: Candidozyma auris
[28] = test system: Nakaseomyces glabratus; assay: Antifungal activity against Candida glabrata 203 assessed as fungal growth inhibition incubated for 48 hrs by broth microdilution method; assay type: functional
[29] = test system: Nakaseomyces glabratus; assay: Antifungal activity against Candida glabrata 204 assessed as fungal growth inhibition incubated for 48 hrs by broth microdilution method; assay type: functional
[30] = test system: Nakaseomyces glabratus; assay: Antifungal activity against Candida glabrata 222 assessed as fungal growth inhibition incubated for 48 hrs by broth microdilution method; assay type: functional
[31] = test system: Pichia kudriavzevii; assay: Antifungal activity against Candida krusei 471 assessed as fungal growth inhibition incubated for 48 hrs by broth microdilution method; assay type: functional
[32] = test system: Pichia kudriavzevii; assay: Antifungal activity against Candida krusei 472 assessed as fungal growth inhibition incubated for 48 hrs by broth microdilution method; assay type: functional
[33] = test system: Pichia kudriavzevii; assay: Antifungal activity against Candida krusei 474 assessed as fungal growth inhibition incubated for 48 hrs by broth microdilution method; assay type: functional
[34] = test system: Candida parapsilosis; assay: Antifungal activity against Candida parapsilosis 104 assessed as fungal growth inhibition incubated for 48 hrs by broth microdilution method; assay type: functional; details: Lodderomyces parapsilosis
[35] = test system: Candida parapsilosis; assay: Antifungal activity against Candida parapsilosis ATCC22019 assessed as fungal growth inhibition incubated for 48 hrs by broth microdilution method; assay type: functional; details: Lodderomyces parapsilosis
[36] = test system: Candida parapsilosis; assay: Antifungal activity against Candida parapsilosis 106 assessed as fungal growth inhibition incubated for 48 hrs by broth microdilution method; assay type: functional; details: Lodderomyces parapsilosis
[37] = test system: Candida tropicalis; assay: Antifungal activity against Candida tropicalis 172 assessed as fungal growth inhibition incubated for 48 hrs by broth microdilution method; assay type: functional
[38] = test system: Candida tropicalis; assay: Antifungal activity against Candida tropicalis 177 assessed as fungal growth inhibition incubated for 48 hrs by broth microdilution method; assay type: functional
[39] = test system: Candida tropicalis; assay: Antifungal activity against Candida tropicalis 182 assessed as fungal growth inhibition incubated for 48 hrs by broth microdilution method; assay type: functional
[40] = test system: Cryptococcus neoformans; assay: Antifungal activity against Cryptococcus neoformans SH68 assessed as fungal growth inhibition incubated for 48 hrs by broth microdilution method; assay type: functional
[41] = test system: Cryptococcus neoformans; assay: Antifungal activity against Cryptococcus neoformans HN1 assessed as fungal growth inhibition incubated for 48 hrs by broth microdilution method; assay type: functional
[42] = test system: Cryptococcus neoformans; assay: Antifungal activity against Cryptococcus neoformans HN2 assessed as fungal growth inhibition incubated for 48 hrs by broth microdilution method; assay type: functional
[43] = test system: Cryptococcus neoformans; assay: Antifungal activity against Cryptococcus neoformans HN2-40 assessed as fungal growth inhibition incubated for 48 hrs by broth microdilution method; assay type: functional
[44] = test system: Cryptococcus neoformans; assay: Antifungal activity against Cryptococcus neoformans HN15 assessed as fungal growth inhibition incubated for 48 hrs by broth microdilution method; assay type: functional
[45] = test system: Cryptococcus neoformans; assay: Antifungal activity against Cryptococcus neoformans HN17 assessed as fungal growth inhibition incubated for 48 hrs by broth microdilution method; assay type: functional
[46] = test system: Cryptococcus neoformans; assay: Antifungal activity against Cryptococcus neoformans HN19 assessed as fungal growth inhibition incubated for 48 hrs by broth microdilution method; assay type: functional
[47] = test system: Cryptococcus neoformans; assay: Antifungal activity against Cryptococcus neoformans HN20 assessed as fungal growth inhibition incubated for 48 hrs by broth microdilution method; assay type: functional
[48] = test system: Cryptococcus neoformans; assay: Antifungal activity against Cryptococcus neoformans BJ3 assessed as fungal growth inhibition incubated for 48 hrs by broth microdilution method; assay type: functional
[49] = Antifungal activity against Cryptococcus gattii WM178 assessed as fungal growth inhibition incubated for 48 hrs by broth microdilution method; assay type: functional, Cryptococcus gattii VGI
[50] = Antifungal activity against Cryptococcus gattii WM179 assessed as fungal growth inhibition incubated for 48 hrs by broth microdilution method; assay type: functional, Cryptococcus gattii VGI
[51] = Antifungal activity against Cryptococcus gattii E566 assessed as fungal growth inhibition incubated for 48 hrs by broth microdilution method; assay type: functional, Cryptococcus gattii VGI
[52] = Antifungal activity against Cryptococcus gattii SCZ20024 assessed as fungal growth inhibition incubated for 48 hrs by broth microdilution method; assay type: functional, Cryptococcus gattii VGI
[53] = Antifungal activity against Cryptococcus gattii SCZ20031 assessed as fungal growth inhibition incubated for 48 hrs by broth microdilution method; assay type: functional, Cryptococcus gattii VGI

## CCN(CC)c1ccc(C(NC(=O)C(C)C)c2ccc3cccnc3c2O)cc1 (stereo not drawn)
[1]
  MIC: 0.063 µg/mL (≈ 0.161 µM)
[2]
  MIC: 0.063 µg/mL (≈ 0.161 µM)
[3]
  MIC: 0.032 µg/mL (≈ 0.0817 µM)
[4]
  MIC: 0.125 µg/mL (≈ 0.319 µM)
[5]
  MIC: 0.032 µg/mL (≈ 0.0817 µM)
[6]
  MIC: 0.125 µg/mL (≈ 0.319 µM)
[7]
  MIC: 0.125 µg/mL (≈ 0.319 µM)
[8]
  MIC: 0.125 µg/mL (≈ 0.319 µM)
[9]
  MIC: 0.125 µg/mL (≈ 0.319 µM)
[10]
  MIC: 0.125 µg/mL (≈ 0.319 µM)
[11]
  MIC: 0.016 µg/mL (≈ 0.0409 µM)
[12]
  MIC: 0.032 µg/mL (≈ 0.0817 µM)
[13]
  MIC: 0.125 µg/mL (≈ 0.319 µM)
[14]
  MIC: 0.016 µg/mL (≈ 0.0409 µM)
[15]
  MIC: 0.016 µg/mL (≈ 0.0409 µM)
[16]
  MIC: 0.016 µg/mL (≈ 0.0409 µM)
[17]
  MIC: 0.5 µg/mL (≈ 1.28 µM)
[18]
  MIC: 0.5 µg/mL (≈ 1.28 µM)
[19]
  MIC: 1 µg/mL (≈ 2.55 µM)
[20]
  MIC: 0.063 µg/mL (≈ 0.161 µM)
[21]
  MIC: 0.032 µg/mL (≈ 0.0817 µM)
[22]
  MIC: 0.063 µg/mL (≈ 0.161 µM)
[23]
  MIC: 0.063 µg/mL (≈ 0.161 µM)
[24]
  MIC: 0.063 µg/mL (≈ 0.161 µM)
[25]
  MIC: 0.125 µg/mL (≈ 0.319 µM)
[26]
  MIC: 0.25 µg/mL (≈ 0.639 µM)
[27]
  MIC: 0.25 µg/mL (≈ 0.639 µM)
[28]
  MIC: 0.016 µg/mL (≈ 0.0409 µM)
[29]
  MIC: 0.016 µg/mL (≈ 0.0409 µM)
[30]
  MIC: 0.125 µg/mL (≈ 0.319 µM)
[31]
  MIC: 0.032 µg/mL (≈ 0.0817 µM)
[32]
  MIC: 0.125 µg/mL (≈ 0.319 µM)
[33]
  MIC: 0.125 µg/mL (≈ 0.319 µM)
[34]
  MIC: 0.016 µg/mL (≈ 0.0409 µM)
[35]
  MIC: 0.125 µg/mL (≈ 0.319 µM)
[36]
  MIC: 0.063 µg/mL (≈ 0.161 µM)
[37]
  MIC: 0.063 µg/mL (≈ 0.161 µM)
[38]
  MIC: 0.125 µg/mL (≈ 0.319 µM)
[39]
  MIC: 0.125 µg/mL (≈ 0.319 µM)
[40]
  MIC: < 0.016 µg/mL
[41]
  MIC: 0.063 µg/mL (≈ 0.161 µM)
[42]
  MIC: 0.063 µg/mL (≈ 0.161 µM)
[43]
  MIC: < 0.016 µg/mL
[44]
  MIC: 0.063 µg/mL (≈ 0.161 µM)
[45]
  MIC: 0.063 µg/mL (≈ 0.161 µM)
[46]
  MIC: 0.063 µg/mL (≈ 0.161 µM)
[47]
  MIC: 0.016 µg/mL (≈ 0.0409 µM)
[48]
  MIC: 0.063 µg/mL (≈ 0.161 µM)
[49]
  MIC: 0.031 µg/mL (≈ 0.0792 µM)
[50]
  MIC: 0.031 µg/mL (≈ 0.0792 µM)
[51]
  MIC: 0.031 µg/mL (≈ 0.0792 µM)
[52]
  MIC: 0.031 µg/mL (≈ 0.0792 µM)
[53]
  MIC: 0.031 µg/mL (≈ 0.0792 µM)
